{"source": "ChEMBL document CHEMBL1201862", "about": "“PubChem BioAssay data set” (2004)", "assay_in_all_cases": "NCI-60 cell line screen, 48 h", "key": {"[1]": {"test_system": "A498"}, "[2]": {"test_system": "DU-145"}, "[3]": {"test_system": "UO-31"}, "[4]": {"test_system": "NCI-H460"}, "[5]": {"test_system": "PC-3"}, "[6]": {"test_system": "HOP-62"}, "[7]": {"test_system": "UACC-62"}, "[8]": {"test_system": "SN12C"}, "[9]": {"test_system": "BT-549"}, "[10]": {"test_system": "HOP-92"}, "[11]": {"test_system": "SF-539"}, "[12]": {"test_system": "HCC 2998"}, "[13]": {"test_system": "NCI-H226"}, "[14]": {"test_system": "RXF 393"}, "[15]": {"test_system": "SK-OV-3"}, "[16]": {"test_system": "SF-268"}, "[17]": {"test_system": "HT-29"}, "[18]": {"test_system": "HCT-15"}, "[19]": {"test_system": "TK-10"}, "[20]": {"test_system": "A549"}, "[21]": {"test_system": "LOX IMVI"}, "[22]": {"test_system": "ACHN"}, "[23]": {"test_system": "M14"}, "[24]": {"test_system": "CAKI-1"}, "[25]": {"test_system": "HL-60"}, "[26]": {"test_system": "Hs-578T"}, "[27]": {"test_system": "786-0"}, "[28]": {"test_system": "OVCAR-8"}, "[29]": {"test_system": "MCF7"}, "[30]": {"test_system": "CCRF-CEM"}, "[31]": {"test_system": "HCT-116"}, "[32]": {"test_system": "NCI/ADR-RES"}, "[33]": {"test_system": "KM12"}, "[34]": {"test_system": "SNB-75"}, "[35]": {"test_system": "SW-620"}, "[36]": {"test_system": "EKVX"}, "[37]": {"test_system": "OVCAR-4"}, "[38]": {"test_system": "OVCAR-5"}, "[39]": {"test_system": "T47D"}, "[40]": {"test_system": "NCI-H23"}, "[41]": {"test_system": "U-251"}, "[42]": {"test_system": "SK-MEL-28"}, "[43]": {"test_system": "UACC-257"}, "[44]": {"test_system": "IGROV-1"}, "[45]": {"test_system": "MDA-MB-231"}, "[46]": {"test_system": "NCI-H522"}, "[47]": {"test_system": "OVCAR-3"}, "[48]": {"test_system": "MOLT-4"}, "[49]": {"test_system": "COLO 205"}, "[50]": {"test_system": "MDA-MB-435"}, "[51]": {"test_system": "SR"}, "[52]": {"test_system": "SK-MEL-2"}, "[53]": {"test_system": "SK-MEL-5"}, "[54]": {"test_system": "SNB-19"}, "[55]": {"test_system": "SF-295"}, "[56]": {"test_system": "Malme-3M"}, "[57]": {"test_system": "K562"}}, "note": "Where “and” joins values, the source holds several entries; their conditions need not be identical. Identical values can stand only once.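 A five-concentration, 48-hour dose response in 96-well plates underlies each endpoint, interpolated linearly between surrounding concentrations. GI50 = concentration required for 50% inhibition of growth.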 Calls of active or inactive are those of the source. Cut-off read from the data, not from the text of the source: active = GI50 up to about 1.1 µM and inactive = higher."}
{"smiles": "COc1ccc(-c2c(C#N)c(O)n(C3OC(COC(C)=O)C(OC(C)=O)C(OC(C)=O)C3OC(C)=O)c(=S)c2C#N)cc1", "note": "(stereo not drawn)", "values": [{"measurement": "GI50", "setting": "[1]", "result": "30.3 µM (inactive) and 32.1 µM (inactive)"}, {"measurement": "GI50", "setting": "[2]", "result": "84.5 µM (inactive)"}, {"measurement": "GI50", "setting": "[3]", "result": "33.4 µM (inactive) and 26.1 µM (inactive)"}, {"measurement": "GI50", "setting": "[4]", "result": "68.7 µM (inactive) and 37.6 µM (inactive)"}, {"measurement": "GI50", "setting": "[5]", "result": "44.3 µM (inactive) and 66.5 µM (inactive)"}, {"measurement": "GI50", "setting": "[6]", "result": "31.6 µM (inactive) and 27 µM (inactive)"}, {"measurement": "GI50", "setting": "[7]", "result": "26 µM (inactive) and 25.7 µM (inactive)"}, {"measurement": "GI50", "setting": "[8]", "result": "94.8 µM (inactive) and 67 µM (inactive)"}, {"measurement": "GI50", "setting": "[9]", "result": "32.7 µM (inactive) and 24.8 µM (inactive)"}, {"measurement": "GI50", "setting": "[10]", "result": "19 µM (inactive) and 17.8 µM (inactive)"}, {"measurement": "GI50", "setting": "[11]", "result": "55.2 µM (inactive) and 36.1 µM (inactive)"}, {"measurement": "GI50", "setting": "[12]", "result": "26.5 µM (inactive) and 25.1 µM (inactive)"}, {"measurement": "GI50", "setting": "[13]", "result": "> 100 µM (inactive) and 72.8 µM (inactive)"}, {"measurement": "GI50", "setting": "[14]", "result": "32.1 µM (inactive) and 26 µM (inactive)"}, {"measurement": "GI50", "setting": "[15]", "result": "33.9 µM (inactive) and 28.6 µM (inactive)"}, {"measurement": "GI50", "setting": "[16]", "result": "25.1 µM (inactive) and 27.9 µM (inactive)"}, {"measurement": "GI50", "setting": "[17]", "result": "> 100 µM (inactive)"}, {"measurement": "GI50", "setting": "[18]", "result": "> 100", "unit": "µM"}, {"measurement": "GI50", "setting": "[19]", "result": "31.6 µM (inactive) and 36.8 µM (inactive)"}, {"measurement": "GI50", "setting": "[20]", "result": "> 100 µM (inactive)"}, {"measurement": "GI50", "setting": "[21]", "result": "93.1 µM (inactive) and 51.5 µM (inactive)"}, {"measurement": "GI50", "setting": "[22]", "result": "48.6 µM (inactive) and 54.8 µM (inactive)"}, {"measurement": "GI50", "setting": "[23]", "result": "> 100 µM (inactive)"}, {"measurement": "GI50", "setting": "[24]", "result": "31.4 µM (inactive) and 19.1 µM (inactive)"}, {"measurement": "GI50", "setting": "[25]", "result": "22.2 µM (inactive) and 24.5 µM (inactive)"}, {"measurement": "GI50", "setting": "[26]", "result": "30.7 µM (inactive) and 32.1 µM (inactive)"}, {"measurement": "GI50", "setting": "[27]", "result": "31.7 µM (inactive) and 34 µM (inactive)"}, {"measurement": "GI50", "setting": "[28]", "result": "28.4 µM (inactive) and 36.6 µM (inactive)"}, {"measurement": "GI50", "setting": "[29]", "result": "> 100 µM (inactive)"}, {"measurement": "GI50", "setting": "[30]", "result": "> 100 µM (inactive) and 67.8 µM (inactive)"}, {"measurement": "GI50", "setting": "[31]", "result": "64 µM (inactive) and 67.3 µM (inactive)"}, {"measurement": "GI50", "setting": "[32]", "result": "> 100 µM (inactive)"}, {"measurement": "GI50", "setting": "[33]", "result": "65.9 µM (inactive)"}, {"measurement": "GI50", "setting": "[34]", "result": "26.5 µM (inactive) and 18.9 µM (inactive)"}, {"measurement": "GI50", "setting": "[35]", "result": "> 100 µM (inactive)"}, {"measurement": "GI50", "setting": "[36]", "result": "25.9 µM (inactive) and 37.3 µM (inactive)"}, {"measurement": "GI50", "setting": "[37]", "result": "29.1 µM (inactive) and 43.7 µM (inactive)"}, {"measurement": "GI50", "setting": "[38]", "result": "> 100 µM (inactive)"}, {"measurement": "GI50", "setting": "[39]", "result": "21.5 µM (inactive) and 30.3 µM (inactive)"}, {"measurement": "GI50", "setting": "[40]", "result": "97.5 µM (inactive) and 79.4 µM (inactive)"}]}
{"smiles": "CN(CCNC(=S)c1cn(C)c2c1ccc1ccccc12)CCNC(=S)c1cn(C)c2c1ccc1ccccc12", "values": [{"measurement": "GI50", "setting": "[2]", "result": "48.2 µM (inactive)"}, {"measurement": "GI50", "setting": "[3]", "result": "32.1 µM (inactive)"}, {"measurement": "GI50", "setting": "[4]", "result": "71.8 µM (inactive)"}, {"measurement": "GI50", "setting": "[5]", "result": "28.6 µM (inactive)"}, {"measurement": "GI50", "setting": "[6]", "result": "> 100 µM (inactive)"}, {"measurement": "GI50", "setting": "[41]", "result": "23.7 µM (inactive)"}, {"measurement": "GI50", "setting": "[7]", "result": "> 100 µM (inactive)"}, {"measurement": "GI50", "setting": "[8]", "result": "40.9 µM (inactive)"}, {"measurement": "GI50", "setting": "[42]", "result": "64.4 µM (inactive)"}, {"measurement": "GI50", "setting": "[43]", "result": "46.2 µM (inactive)"}, {"measurement": "GI50", "setting": "[44]", "result": "29.4 µM (inactive)"}, {"measurement": "GI50", "setting": "[9]", "result": "> 100 µM (inactive)"}, {"measurement": "GI50", "setting": "[10]", "result": "5.64 µM (inactive)"}, {"measurement": "GI50", "setting": "[45]", "result": "38.7 µM (inactive)"}, {"measurement": "GI50", "setting": "[46]", "result": "51.2 µM (inactive)"}, {"measurement": "GI50", "setting": "[11]", "result": "47.6 µM (inactive)"}, {"measurement": "GI50", "setting": "[12]", "result": "16.6 µM (inactive)"}, {"measurement": "GI50", "setting": "[47]", "result": "> 100 µM (inactive)"}, {"measurement": "GI50", "setting": "[48]", "result": "24.7 µM (inactive)"}, {"measurement": "GI50", "setting": "[49]", "result": "> 100 µM (inactive)"}, {"measurement": "GI50", "setting": "[14]", "result": "2.05 µM (inactive)"}, {"measurement": "GI50", "setting": "[15]", "result": "> 100 µM (inactive)"}, {"measurement": "GI50", "setting": "[16]", "result": "74 µM (inactive)"}, {"measurement": "GI50", "setting": "[50]", "result": "96.8 µM (inactive)"}, {"measurement": "GI50", "setting": "[17]", "result": "27.5 µM (inactive)"}, {"measurement": "GI50", "setting": "[18]", "result": "> 100", "unit": "µM"}, {"measurement": "GI50", "setting": "[19]", "result": "> 100 µM (inactive)"}, {"measurement": "GI50", "setting": "[20]", "result": "64.3 µM (inactive)"}, {"measurement": "GI50", "setting": "[21]", "result": "18.5 µM (inactive)"}, {"measurement": "GI50", "setting": "[22]", "result": "> 100 µM (inactive)"}, {"measurement": "GI50", "setting": "[51]", "result": "49.5 µM (inactive)"}, {"measurement": "GI50", "setting": "[52]", "result": "> 100 µM (inactive)"}, {"measurement": "GI50", "setting": "[24]", "result": "> 100 µM (inactive)"}, {"measurement": "GI50", "setting": "[53]", "result": "> 100 µM (inactive)"}, {"measurement": "GI50", "setting": "[26]", "result": "69.2 µM (inactive)"}, {"measurement": "GI50", "setting": "[27]", "result": "53.6 µM (inactive)"}, {"measurement": "GI50", "setting": "[54]", "result": "> 100 µM (inactive)"}, {"measurement": "GI50", "setting": "[28]", "result": "> 100 µM (inactive)"}, {"measurement": "GI50", "setting": "[29]", "result": "33.5 µM (inactive)"}, {"measurement": "GI50", "setting": "[30]", "result": "17.9 µM (inactive)"}, {"measurement": "GI50", "setting": "[31]", "result": "24.4 µM (inactive)"}, {"measurement": "GI50", "setting": "[55]", "result": "99.3 µM (inactive)"}, {"measurement": "GI50", "setting": "[32]", "result": "> 100 µM (inactive)"}, {"measurement": "GI50", "setting": "[56]", "result": "> 100 µM (inactive)"}, {"measurement": "GI50", "setting": "[33]", "result": "37.1 µM (inactive)"}, {"measurement": "GI50", "setting": "[34]", "result": "10.7 µM (inactive)"}, {"measurement": "GI50", "setting": "[35]", "result": "> 100 µM (inactive)"}, {"measurement": "GI50", "setting": "[36]", "result": "67.9 µM (inactive)"}, {"measurement": "GI50", "setting": "[37]", "result": "11.3 µM (inactive)"}, {"measurement": "GI50", "setting": "[57]", "result": "54.8 µM (inactive)"}, {"measurement": "GI50", "setting": "[38]", "result": "> 100 µM (inactive)"}, {"measurement": "GI50", "setting": "[39]", "result": "3.74 µM (inactive)"}, {"measurement": "GI50", "setting": "[40]", "result": "48 µM (inactive)"}]}
